Measurements published in patent US20080085889A1, “Amidomethyl-Substituted 1-(Carboxyalkyl) Cyclopentyl-Carbonylamino-Benzazepine-N-Acetic Acid Compounds, Process and Intermediate Products for Their Preparation and Pharmaceutical Compositions Containing Them” (SOLVAY PHARMACEUTICALS GmbH, priority 2003, published 2008).
“Also recorded” adds a separate entry of the source. Where two headings read alike, the source gives them in different places. Marks after values point to notes of the source that are not given here.

Tests used:
[1] = biological target: T1, hSEP (sol hu)(his)6; His6-tagged hSEP ectodomain (Homo sapiens, UniProt Q495T6); test: Enzymatic breakdown of CNP and VIP by hSEP and its inhibition, in vitro, HPLC; type: biochemical
T1 construct: His6-tagged hSEP ectodomain; His6; purchased Innogenetics, Ghent, Belgium
T1 sequence (Q495T6 49-779 limits assumed): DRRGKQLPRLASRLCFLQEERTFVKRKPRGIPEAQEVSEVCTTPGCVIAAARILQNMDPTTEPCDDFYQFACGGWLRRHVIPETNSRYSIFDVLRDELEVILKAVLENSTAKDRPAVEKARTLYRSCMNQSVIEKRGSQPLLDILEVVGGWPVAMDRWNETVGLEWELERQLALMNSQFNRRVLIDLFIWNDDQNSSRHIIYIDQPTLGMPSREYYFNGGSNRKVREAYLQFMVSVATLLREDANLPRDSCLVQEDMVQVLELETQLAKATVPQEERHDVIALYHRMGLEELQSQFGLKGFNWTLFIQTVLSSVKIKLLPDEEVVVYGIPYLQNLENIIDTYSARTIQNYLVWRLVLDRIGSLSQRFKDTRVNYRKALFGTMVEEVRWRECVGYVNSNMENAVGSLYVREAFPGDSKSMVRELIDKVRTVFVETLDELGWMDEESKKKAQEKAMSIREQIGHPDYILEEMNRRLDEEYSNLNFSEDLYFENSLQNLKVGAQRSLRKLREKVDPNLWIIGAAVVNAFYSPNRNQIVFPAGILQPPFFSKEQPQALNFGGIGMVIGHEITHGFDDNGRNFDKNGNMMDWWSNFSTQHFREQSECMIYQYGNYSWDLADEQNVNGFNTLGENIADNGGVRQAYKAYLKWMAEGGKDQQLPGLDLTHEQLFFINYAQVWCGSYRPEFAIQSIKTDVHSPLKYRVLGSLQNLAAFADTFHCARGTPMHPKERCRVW
Experimental: The inhibition of the enzymatic breakdown of CNP and VIP by the compounds used according to the invention was measured in an enzymatic in vitro assay according to the following protocol:
All test compounds were dissolved in DMSO at 10 mM and further diluted with assay buffer.
80 μl of assay buffer, 10 μl of enzyme working solution (NEP or hSEP) and 10 μl of peptide stock solution (VIP or CNP) were mixed in an Eppendorf vial and incubated for 120 min. at 37° C. The enzymatic reaction was subsequently terminated by heating to 95° C. for 5 min. After centrifugation (Heraeus Biofuge B, 3 min) the supernatant was subjected to HPLC.
70 μl of assay buffer, 10 μl of enzyme working solution (NEP or hSEP) and 10 μl of a test compound solution were mixed in an Eppendorf vial and preincubated at 37° C. for 15 minutes. Then, 10 μl of peptide stock solution (VIP or CNP) was added and the reaction mixture was incubated at 37° C. for 60 min. to allow enzymatic hydrolysis. The enzymatic reaction was subsequently terminated by heating to 95° C. for 5 min. After centrifugation (Heraeus Biofuge B, 3 min) the supernatant was subjected to HPLC. In order to separate the remaining substrate from the cleavage products, a reversed phase HPLC technique with a CC 125/4 Nucleosil 300/5 C18 RP column and a CC 8/4 Nucleosil 100/5 C18 precolumn (Macherey-Nagel, Düren, Germany) was used. 60 μl of the reaction samples were injected into the HPLC and the column was eluted at a flow rate of 1 ml/min with the following gradient:
All peptides were detected by absorbance at 214 nm (UV spectroscopy). The percentage (=%) of hydrolysis was calculated on the basis of the peak area of the undegraded peptide for an enzyme containing sample Y in correlation to a sample containing the same concentration of peptide without enzyme (blank) by the following equation: % hydrolysis=100*(blank−Y)
Basis of the calculation of % inhibition is the peak area of the undegraded peptide (VIP or CNP) for an inhibitor containing sample X in comparison to samples containing only peptide (blank) or peptide and enzyme without inhibitor (control) according to the following equation: % inhib=100*(X−control)/(blank−control)
All samples were run in duplicate and mean values were used. A solvent control (0.1% DMSO) was added to each assay run. CNP and VIP were cleaved by NEP and hSEP in vitro.

[2] = system: TUNEL positive cells in heart, liver and kidney; test: Adriamycin toxicity: determination of anti-apoptotic activity (TUNEL staining); type: in vivo, Wistar rats; details: for TUNEL positive cells, Heart / TUNEL positive cells, Kidney / TUNEL positive cells, Liver: ± SEM
Experimental: 2. Adriamycin Toxicity: Determination of Anti-Apoptotic Activity
Wistar rats, weighing 200-250 g, were anesthetized with chloral hydrate, 400 mg/kg, and Alzet osmotic minipumps (2 ML1), were implanted subcutaneously (=s.c.). The pumps had been filled with either vehicle or solution containing compounds of the invention at the appropriate concentration and primed prior to implantation. Animals subsequently received adriamycin at three equal daily doses of 5 mg/kg i.p. on days 1, 2 and 3. Rats were euthanized 5 days after the first injection of adriamycin and transcardially perfused with a solution containing 4% paraformaldehyde in phosphate buffer. The heart, liver and kidneys were subsequently removed and embedded in parafin.
TUNEL staining: For terminal deoxynucleotide transferase-mediated dUTP nick end-label (TUNEL) based histological analysis, organs were post-fixed for 5 days at 4° C. and paraffin-embedded. TUNEL staining was performed on 10 μm thick paraffin sections using the ApopTag Peroxidase kit (S 7100, Oncor Appligene, Heidelberg, Germany) according to the manufacturer's instructions. Briefly, after pretreatment with proteinase K and quenching of endogenous peroxidase, sections were incubated in equilibration buffer followed by working strength TdT enzyme (incorporating digoxigenin labeled dUTP nucleotides to free 3′-OH DNA termini), (1 hr, 37° C.). Sections were incubated in stop/wash buffer (30 min, 37° C.), then with anti-digoxigenin-peroxidase conjugate (30 min) followed by DAB substrate (Sigma, Deisenhofen, Germany) and lightly counterstained with methylgreen.
Wistar rats were administered adriamycin at the cumulative dose of 15 mg/kg i.p. The test substance of Example 4 was administered s.c. at the doses of 20, 50 or 100 mg/kg and day by means of Alzet osmotic minipumps over 5 days. Animals were euthanized and transcardially perfused 5 days after the first injection of adriamycin and the heart, kidney and liver were processed for TUNEL staining. Densities of TUNEL positive cells were determined as described in the methods. Results for each organ (heart, liver, kidney) were measured as mean densities of TUNEL positive cells ±SEM for the control groups and the different test groups (20, 50 or 100 mg/kg and day of test compound of Example 4) and listed in table 8 below.
Comparisons between groups were performed by means of Student's t test (**P<0.01; ***P<0.001 compared to vehicle treated rats).

[3] = adriamycin 15 mg/kg cumulative i.p. + 20 mg/kg and day s.c. minipump over 5 days
[4] = adriamycin 15 mg/kg cumulative i.p. + 50 mg/kg and day s.c. minipump over 5 days
[5] = adriamycin 15 mg/kg cumulative i.p. + 100 mg/kg and day s.c. minipump over 5 days

{(3S)-3-[({1-[(2″rel1″)-2-ethoxycarbonyl)-4-(isopropylamino)-4-oxobutyl]cyclopentyl}-carbonyl)amino]-2-oxo-2,3,4,5-tetrahydro-1H-1-benzazepin-1-yl}acetic acid [Example 4]
IC50 ([1]; substrate CNP (32-53), read-out: inhibition of breakdown of CNP by hSEP, IC50): 1 nM
IC50 ([1]; substrate VIP, read-out: inhibition of breakdown of VIP by hSEP, IC50): 3.1 nM
protection against adriamycin toxicity (densities of TUNEL positive cells) ([2]; 20, 50 or 100 mg/kg and day s.c., heart, liver, kidney): significant protection against adriamycin toxicity in the heart, liver and kidney; also recorded: dose-dependently decreased the cytotoxic effect of adriamycin in all three organs
TUNEL positive cells, Heart [2, 3]: 4.350 ± 0.248*** cells/mm3 × 102
TUNEL positive cells, Kidney [2, 3]: 7.900 ± 0.306*** cells/mm3 × 102
TUNEL positive cells, Liver [2, 3]: 8.750 ± 0.301** cells/mm3 × 102
TUNEL positive cells, Heart [2, 4]: 3.700 ± 0.260*** cells/mm3 × 102
TUNEL positive cells, Kidney [2, 4]: 7.850 ± 0.587** cells/mm3 × 102
TUNEL positive cells, Liver [2, 4]: 8.250 ± 0.271*** cells/mm3 × 102
TUNEL positive cells, Heart [2, 5]: 3.550 ± 0.157*** cells/mm3 × 102
TUNEL positive cells, Kidney [2, 5]: 6.300 ± 0.260*** cells/mm3 × 102
TUNEL positive cells, Liver [2, 5]: 7.450 ± 0.329*** cells/mm3 × 102
most effective dose against adriamycin toxicity ([2]; of 20, 50 or 100 mg/kg and day s.c.): 100 mg/kg and day
